Like-named read-outs stand apart in the source and are kept apart here.
Assays:
anaesthetised rats = test: Effects on rhythmic bladder-voiding contractions induced by bladder filling in anaesthetised rats; type: in vivo, rat; settings: for ED50: Rattus norvegicus
Procedure: Female Sprague-Dawley rats weighing 225-275 g (Crl: CDo Br, Charles River Italia) were used. The animals were housed with free access to food and water and maintained on a forced 12-hour alternating light-dark cycle at 22-24° C. for at least one week, except during the experiment. The activity on rhythmic bladder voiding contractions was evaluated according to the method of Dray (Dray J., Pharmacol. Methods, 13:157, 1985), with some modifications as in Guarneri (Guarneri, Pharmacol. Res. 27:173, 1993). Briefly, the rats were anaesthetised by subcutaneous injection of 1.25 g/kg (5 ml/kg) urethane, after which the urinary bladder was catheterised via the urethra using PE 50 polyethylene tubing filled with physiological saline. The catheter was tied in place with a ligature around the external urethral orifice and was connected to conventional pressure transducers (Statham P23 ID/P23 XL). […] The bladder was then filled via the recording catheter by incremental volumes of warm (37° C.) saline until reflex bladder-voiding contractions occurred (usually 0.8-1.5 ml). For intravenous injection of bioactive compounds, PE 50 polyethylene tubing filled with physiological saline was inserted into the jugular vein.
From the cystometrogram, the number of contractions recorded 15 minutes before (basal values) and after treatment, as well as the mean amplitude of these contractions (mean height of the peaks in mmHg), was evaluated.
Since most compounds produced an effect that was relatively rapid in onset and led to a complete cessation of bladder contractions, bioactivity was conveniently estimated by measuring the duration of bladder quiescence (i.e. the length of the time during which no contractions occurred). The number of tested animals showing a reduction in the number of contractions higher than 30% of that observed in the basal period was recorded too.
The extrapolated doses which induced a reduction in the number of contractions greater than 30% in 50% of the treated rats (ED50) were evaluated by the method of Bliss (Bliss C. I., Quart J. Pharm. Pharmacol. 11, 192-216, 1938).

conscious rats = test: Effect on cystometric parameters in conscious rats after oral administration; type: in vivo, rat; settings: 3 mg/kg p.o., 1-5 h after treatment, versus vehicle
Procedure: Male Sprague-Dawley rats [Crl: CD° (SD) BR] of 300-400 g supplied by Charles River Italia were used. The animals were housed with free access to food and water and maintained on a forced 12-hour-light/12-hour-dark cycle at 22-24° C. of temperature, except during the experiment. To quantify urodynamic parameters in conscious rats, cystometrographic studies were performed according to the procedure previously reported (Guarneri et al., Pharmacol. Res. 24: 175, 1991).
Briefly, the rats were anaesthetised by intraperitoneal administration of 3 ml/kg of Equithensin solution (pentobarbital 30 mg/kg and chloral hydrate 125 mg/kg) and placed in a supine position. An approximately-10-mm-long midline incision was made in the shaved and cleaned abdominal wall. The urinary bladder was gently freed from adhering tissues, emptied and then cannulated via an incision in the bladder body, using a polyethylene cannula (0.58-mm internal diameter, 0.96-mm external diameter) which was permanently sutured with silk thread. The cannula was exteriorised through a subcutaneous tunnel in the retroscapular area, where it was connected to a plastic adapter in order to avoid the risk of removal by the animal. For drug testing, the rats were utilised one day after implantation.
On the day of the experiment, the rats were placed in modified Bollman cages, i.e. restraining cages that were large enough to permit the rats to adopt a normal crouched posture, but narrow enough to prevent turning around. […] The intraluminal-pressure signal during infusion of saline into the bladder was continuously recorded on a polygraph (Rectigraph-8K San-ei with BM614/2 amplifier from Biomedica Mangoni) and, from the cystometrogram, two urodynamic parameters were evaluated: bladder volume capacity (BVC) and micturition pressure (MP). […] Basal BVC and MP values were evaluated as mean of the values observed in the cystometrograms recorded in an initial period of 30-60 minutes. […] The bladder infusion restarted and changes in BVC and MP were evaluated from the mean values obtained in the cystometrograms observed during 1, 2, 3, 4 and 5 hours after treatment. […]
All data were expressed as mean±standard error. Time-course data were analysed by S.A.S./STAT software, version 6.12. The difference between vehicle and active-treatment effect was evaluated by: General Linear Model Procedure—Repeated Measures Analysis of Variance: Univariate test of Hypotheses for within Subject Effects—Analysis of Variance of Contrast Variables. […]

CCN(CC)CC#CCOC(=O)C(O)(c1ccccc1)C1CCCCC1 (stereo not drawn) [Oxybutynin, oxybutynin, reference compound]
ED50 (anaesthetised rats; intravenous administration, urethane-anaesthetised rats, read-out: ED50 frequency (extrapolated dose inducing a reduction of the number of contractions >30% in 50% of treated rats)): > 10 mg/kg | ED50 (anaesthetised rats; intravenous administration, n.a. = not active, no significant reduction of the height of the peaks, read-out: ED50 amplitude (extrapolated dose inducing a 30% reduction of amplitude of the contractions in 50% of treated rats)): 0.24 mg/kg | ED10 min (extrapolated dose inducing 10 minutes of disappearance of the contractions) (anaesthetised rats; intravenous administration, urethane-anaesthetised rats): 7.77 mg/kg | cessation of bladder contractions (in words) (anaesthetised rats; intravenous, anaesthetised rats): does not cause cessation of bladder contractions | effect on bladder volume capacity (BVC) (conscious rats): slight, not-significant increase | effect on micturition pressure (MP) (conscious rats): greatly reduced

From patent US20030162777A1, “Novel N-acylated heterocycles” (Recordati S.A., priority 2001, published 2003)
